Laboratory results: ChEMBL document CHEMBL4715771 (Bioorg Med Chem, 2016)
pIC50: −log10 of the molar value. Values belong to the compound of their own block, whether it stands above or below them. Calls of active or inactive are those of the source. No cut-off for these calls is given here.

Tests used:
[1] = system: MDA-MB-468; assay: Antiproliferative activity against triple-negative human MDA-MB-468 cells overexpressing c-Met assessed as inhibition of cell proliferation measured after 72 hrs by MTT assay; format: functional, cell-based; settings: MDA-MB-468, 72 h
[2] = system: MDA-MB-231; assay: Antiproliferative activity against triple-negative human MDA-MB-231 cells overexpressing c-Met assessed as inhibition of cell proliferation measured after 72 hrs by MTT assay; format: functional, cell-based; settings: MDA-MB-231, 72 h
[3] = system: MDA-MB-231; assay: cells; settings: Homo sapiens, MDA-MB-231, 24 h
[4] = target: Proto-oncogene tyrosine-protein kinase ROS (Homo sapiens) (UniProt P08922); assay: Inhibition of recombinant GST-tagged human ROS1 (1883 to 2347 residues) expressed in baculovirus expression system at 10 uM by TR-FRET assay relative to control
[5] = target: T1, Hepatocyte growth factor receptor (Homo sapiens, UniProt P08581); assay: Inhibition of c-MET kinase domain (unknown origin) using Tyr6 peptide as substrate measured after 1 hr in presence of ATP by Z'-lyte kinase assay
[6] = target: T1, Hepatocyte growth factor receptor; assay: Inhibition of c-MET in human MDA-MB-231 cells assessed as downregulation of activated phosphorylated FAK level measured after 72 hrs in presence of HGF by immunoblot analysis; format: cell-based; settings: dose 1-3 µM
[7] = target: T1, Hepatocyte growth factor receptor; assay: Inhibition of c-MET in human MDA-MB-231 cells assessed as downregulation of activated phosphorylated Akt level measured after 72 hrs in presence of HGF by immunoblot analysis; format: cell-based; settings: dose 1-3 µM
[8] = target: T1, Hepatocyte growth factor receptor; assay: Inhibition of recombinant N-terminal His-tagged human MET (956 to 1390 residues) expressed in baculovirus expression system at 10 uM by TR-FRET assay relative to control
[9] = target: T1, Hepatocyte growth factor receptor; assay: Inhibition of c-MET in human MDA-MB-231 cells assessed as downregulation of activated phosphorylated MAPK level measured after 72 hrs in presence of HGF by immunoblot analysis; format: cell-based; settings: dose 1-3 µM
[10] = target: T1, Hepatocyte growth factor receptor; assay: Inhibition of c-MET in human MDA-MB-231 cells assessed as downregulation of activated phosphorylated paxillin level measured after 72 hrs in presence of HGF by immunoblot analysis; format: cell-based; settings: dose 1-3 µM
[11] = target: Tyrosine-protein kinase ABL1 (Homo sapiens) (UniProt P00519); assay: Inhibition of recombinant full length His-tagged human ABL1 expressed in baculovirus expression system at 10 uM by TR-FRET assay relative to control
[12] = system: Mus musculus; assay: Downregulation of phosphorylated c-Met level in tumor of athymic nude-Foxn1nu/Foxn1+ mouse xenografted with GFP-tagged human MDA-MB-231 cells at 10 mg/kg, ip dosed 3 times per week for 3 weeks treatment started 10 days of post inoculation by western blot analysis; format: functional, organism-based
[13] = target: Epidermal growth factor receptor (Homo sapiens) (UniProt P00533); assay: Inhibition of recombinant GST-tagged human EGFR (668 to 1210 residues) expressed in baculovirus expression system at 10 uM by TR-FRET assay relative to control
[14] = target: Tyrosine-protein kinase receptor UFO (Homo sapiens) (UniProt P30530); assay: Inhibition of recombinant His-tagged human AXL (473 to end residues) expressed in insect cells at 10 uM by TR-FRET assay relative to control
[15] = target: Receptor tyrosine-protein kinase erbB-2 (Homo sapiens) (UniProt P04626); assay: Inhibition of recombinant His-tagged human Erbb2 (676 to 1255 residues) expressed in baculovirus expression system at 10 uM by TR-FRET assay relative to control
[16] = target: T1, Hepatocyte growth factor receptor; assay: Inhibition of c-MET in human MDA-MB-231 cells assessed as downregulation of activated phosphorylated mTOR level measured after 72 hrs in presence of HGF by immunoblot analysis; format: cell-based; settings: dose 1-3 µM
[17] = system: MDA-MB-231; assay: cells; settings: Homo sapiens, MDA-MB-231, 23 h
[18] = target: Macrophage-stimulating protein receptor (Homo sapiens) (UniProt Q04912); assay: Inhibition of recombinant GST-tagged human RON (983 to 1440 residues) expressed in baculovirus expression system at 10 uM by TR-FRET assay relative to control
[19] = system: MDA-MB-231; assay: Antitumor activity against GFP-tagged human MDA-MB-231 cells xenografted in athymic nude-Foxn1nu/Foxn1+ mouse assessed as the reduction in tumor growth at 10 mg/kg, ip dosed 3 times per week for 3 weeks treatment started 10 days of post inoculation digital caliper method relative to control; format: functional; settings: MDA-MB-231, ip, 504 h, read-out: TGI
[20] = target: T1, Hepatocyte growth factor receptor; assay: Inhibition of c-MET in human MDA-MB-231 cells assessed as downregulation of activated phosphorylated c-MET level at 1 to 3 uM measured after 72 hrs in presence of HGF by immunoblot analysis; format: cell-based; settings: dose 1-3 µM
[21] = target: Fibroblast growth factor receptor 1 (Homo sapiens) (UniProt P11362); assay: Inhibition of recombinant His-tagged human FGFR1 (308 to 731 residues) expressed in baculovirus expression system at 10 uM by TR-FRET assay relative to control
[22] = system: MDA-MB-231; assay: Antiinvasive activity against human MDA-MB-231 cells overexpressing c-Met assessed as inhibition of cell invasion at 2 uM measured after 24 hrs by Calcein AM dye based fluorescence assay; format: functional
[23] = Cytotoxicity against human MCF-10A cells assessed as reduction in cell viability at 15 uM measured after 24 hrs by MTT assay relative to control; format: cell-based; settings: read-out: INH
[24] = system: MCF7; assay: Antiproliferative activity against estrogen-dependent human MCF7 cells assessed as inhibition of cell proliferation measured after 72 hrs by MTT assay; format: functional, cell-based; settings: MCF7, 72 h
[25] = Toxicity in athymic nude-Foxn1nu/Foxn1+ mouse assessed as effect on body weight at 10 mg/kg, ip dosed 3 times per week for 3 weeks treatment started 10 days of post inoculation; format: organism-based; settings: in vivo, 504 h
[26] = system: T47D; assay: Antiproliferative activity against estrogen-dependent human T47D cells assessed as inhibition of cell proliferation measured after 72 hrs by MTT assay; format: functional, cell-based
[27] = system: SK-BR-3; assay: Antiproliferative activity against ER-deficient human SK-BR-3 cells overexpressing HER2 assessed as inhibition of cell proliferation measured after 72 hrs by MTT assay; format: functional, cell-based; settings: SK-BR-3, 72 h
[28] = system: MDA-MB-231; assay: Cytotoxicity against human MDA-MB-231 cells assessed as induction of necrotic cell death by measuring LDH release at 0.5 to 8 uM measured after 24 hrs by LDH release assay; format: functional, cell-based; settings: dose 0.5-8 µM
[29] = target: Insulin-like growth factor 1 receptor (Homo sapiens) (UniProt P08069); assay: Inhibition of recombinant C-terminal His-tagged human IGF1R (960 to 1397 residues) expressed in baculovirus expression system at 10 uM by TR-FRET assay relative to control
[30] = system: MCF-10A; assay: Cytotoxicity against human MCF-10A cells assessed as cell death at 1 to 15 uM measured after 24 hrs by MTT assay; format: cell-based; settings: dose 1-15 µM
[31] = system: BT-474; assay: Antiproliferative activity against ER-positive human BT-474 cells overexpressing HER2 assessed as inhibition of cell proliferation measured after 72 hrs by MTT assay; format: functional, cell-based; settings: BT-474, 72 h
[32] = system: MDA-MB-231; assay: Antitumor activity against GFP-tagged human MDA-MB-231 cells xenografted in athymic nude-Foxn1nu/Foxn1+ mouse assessed as the tumor volume at 10 mg/kg, ip dosed 3 times per week for 3 weeks treatment started 10 days of post inoculation by digital caliper method (reference value: 2048 mm3); format: functional
[33] = target: ALK tyrosine kinase receptor (Homo sapiens) (UniProt Q9UM73); assay: Inhibition of recombinant GST-tagged human ALK (1058 to 1620 residues) expressed in baculovirus expression system at 10 uM by TR-FRET assay relative to control
[34] = target: T1, Hepatocyte growth factor receptor; assay: Inhibition of c-MET in human MDA-MB-231 cells assessed as downregulation of activated phosphorylated c-MET level measured after 72 hrs in presence of HGF by immunoblot analysis; format: cell-based; settings: dose 25-50 µM

T1 sequence (P08581 whole entry, the tested form may be a part): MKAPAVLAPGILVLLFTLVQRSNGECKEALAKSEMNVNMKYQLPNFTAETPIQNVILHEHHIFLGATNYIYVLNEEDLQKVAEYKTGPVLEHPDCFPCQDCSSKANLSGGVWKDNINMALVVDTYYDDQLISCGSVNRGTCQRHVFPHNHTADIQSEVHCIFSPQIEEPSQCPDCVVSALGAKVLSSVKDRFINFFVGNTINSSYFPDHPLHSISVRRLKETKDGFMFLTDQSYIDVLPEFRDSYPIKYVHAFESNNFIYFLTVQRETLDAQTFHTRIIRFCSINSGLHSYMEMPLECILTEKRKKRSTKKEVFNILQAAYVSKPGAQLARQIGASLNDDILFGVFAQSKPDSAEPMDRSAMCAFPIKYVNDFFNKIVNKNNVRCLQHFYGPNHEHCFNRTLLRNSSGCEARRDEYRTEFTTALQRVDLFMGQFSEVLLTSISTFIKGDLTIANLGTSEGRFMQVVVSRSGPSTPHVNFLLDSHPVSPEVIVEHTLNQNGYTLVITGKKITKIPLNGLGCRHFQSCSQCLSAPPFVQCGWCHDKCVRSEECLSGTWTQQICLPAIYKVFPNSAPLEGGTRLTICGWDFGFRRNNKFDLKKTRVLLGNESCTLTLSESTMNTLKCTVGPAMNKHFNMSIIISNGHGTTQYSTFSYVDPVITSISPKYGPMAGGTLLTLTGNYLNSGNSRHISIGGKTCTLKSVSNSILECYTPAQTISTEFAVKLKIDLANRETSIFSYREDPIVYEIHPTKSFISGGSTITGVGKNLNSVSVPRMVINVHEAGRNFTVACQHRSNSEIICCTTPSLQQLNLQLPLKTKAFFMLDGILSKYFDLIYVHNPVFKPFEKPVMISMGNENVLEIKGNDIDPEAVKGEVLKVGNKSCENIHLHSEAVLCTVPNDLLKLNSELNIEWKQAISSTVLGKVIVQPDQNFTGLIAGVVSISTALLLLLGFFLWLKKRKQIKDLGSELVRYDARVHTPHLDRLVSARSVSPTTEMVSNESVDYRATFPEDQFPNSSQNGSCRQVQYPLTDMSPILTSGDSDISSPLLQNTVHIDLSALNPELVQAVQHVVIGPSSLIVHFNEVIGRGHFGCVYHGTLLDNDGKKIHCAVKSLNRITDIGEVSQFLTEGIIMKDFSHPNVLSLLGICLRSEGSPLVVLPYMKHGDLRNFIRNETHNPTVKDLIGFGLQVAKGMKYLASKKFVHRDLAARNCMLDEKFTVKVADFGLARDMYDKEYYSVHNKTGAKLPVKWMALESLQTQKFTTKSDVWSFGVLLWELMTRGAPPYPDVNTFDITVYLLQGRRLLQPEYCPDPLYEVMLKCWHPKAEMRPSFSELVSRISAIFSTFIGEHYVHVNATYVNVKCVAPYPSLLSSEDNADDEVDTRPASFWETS
Sequence of Tyrosine-protein kinase receptor UFO (Homo sapiens) (P30530 whole entry, the tested form may be a part): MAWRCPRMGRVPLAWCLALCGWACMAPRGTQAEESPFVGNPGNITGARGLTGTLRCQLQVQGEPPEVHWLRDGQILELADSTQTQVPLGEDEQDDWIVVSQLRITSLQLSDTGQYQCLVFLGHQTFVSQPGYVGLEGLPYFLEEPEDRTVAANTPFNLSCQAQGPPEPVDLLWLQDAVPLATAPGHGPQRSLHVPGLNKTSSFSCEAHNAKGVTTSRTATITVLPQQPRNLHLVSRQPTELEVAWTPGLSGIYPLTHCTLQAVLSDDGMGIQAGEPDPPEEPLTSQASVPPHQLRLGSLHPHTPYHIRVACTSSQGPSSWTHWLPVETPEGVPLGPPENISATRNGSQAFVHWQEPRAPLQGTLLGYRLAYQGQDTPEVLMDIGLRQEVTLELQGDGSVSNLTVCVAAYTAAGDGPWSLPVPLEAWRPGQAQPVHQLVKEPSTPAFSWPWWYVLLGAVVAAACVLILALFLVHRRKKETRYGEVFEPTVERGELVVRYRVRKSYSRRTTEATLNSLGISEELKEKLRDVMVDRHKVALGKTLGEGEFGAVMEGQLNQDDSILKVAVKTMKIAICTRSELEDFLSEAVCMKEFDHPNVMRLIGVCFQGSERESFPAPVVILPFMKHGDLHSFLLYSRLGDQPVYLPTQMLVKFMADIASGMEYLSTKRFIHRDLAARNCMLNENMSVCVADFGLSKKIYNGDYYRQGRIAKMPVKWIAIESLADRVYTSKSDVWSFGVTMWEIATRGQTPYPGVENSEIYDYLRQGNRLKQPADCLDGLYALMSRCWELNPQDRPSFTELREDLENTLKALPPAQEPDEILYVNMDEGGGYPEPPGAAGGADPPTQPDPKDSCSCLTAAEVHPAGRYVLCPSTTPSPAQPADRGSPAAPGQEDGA
Sequence of Receptor tyrosine-protein kinase erbB-2 (Homo sapiens) (P04626 whole entry, the tested form may be a part): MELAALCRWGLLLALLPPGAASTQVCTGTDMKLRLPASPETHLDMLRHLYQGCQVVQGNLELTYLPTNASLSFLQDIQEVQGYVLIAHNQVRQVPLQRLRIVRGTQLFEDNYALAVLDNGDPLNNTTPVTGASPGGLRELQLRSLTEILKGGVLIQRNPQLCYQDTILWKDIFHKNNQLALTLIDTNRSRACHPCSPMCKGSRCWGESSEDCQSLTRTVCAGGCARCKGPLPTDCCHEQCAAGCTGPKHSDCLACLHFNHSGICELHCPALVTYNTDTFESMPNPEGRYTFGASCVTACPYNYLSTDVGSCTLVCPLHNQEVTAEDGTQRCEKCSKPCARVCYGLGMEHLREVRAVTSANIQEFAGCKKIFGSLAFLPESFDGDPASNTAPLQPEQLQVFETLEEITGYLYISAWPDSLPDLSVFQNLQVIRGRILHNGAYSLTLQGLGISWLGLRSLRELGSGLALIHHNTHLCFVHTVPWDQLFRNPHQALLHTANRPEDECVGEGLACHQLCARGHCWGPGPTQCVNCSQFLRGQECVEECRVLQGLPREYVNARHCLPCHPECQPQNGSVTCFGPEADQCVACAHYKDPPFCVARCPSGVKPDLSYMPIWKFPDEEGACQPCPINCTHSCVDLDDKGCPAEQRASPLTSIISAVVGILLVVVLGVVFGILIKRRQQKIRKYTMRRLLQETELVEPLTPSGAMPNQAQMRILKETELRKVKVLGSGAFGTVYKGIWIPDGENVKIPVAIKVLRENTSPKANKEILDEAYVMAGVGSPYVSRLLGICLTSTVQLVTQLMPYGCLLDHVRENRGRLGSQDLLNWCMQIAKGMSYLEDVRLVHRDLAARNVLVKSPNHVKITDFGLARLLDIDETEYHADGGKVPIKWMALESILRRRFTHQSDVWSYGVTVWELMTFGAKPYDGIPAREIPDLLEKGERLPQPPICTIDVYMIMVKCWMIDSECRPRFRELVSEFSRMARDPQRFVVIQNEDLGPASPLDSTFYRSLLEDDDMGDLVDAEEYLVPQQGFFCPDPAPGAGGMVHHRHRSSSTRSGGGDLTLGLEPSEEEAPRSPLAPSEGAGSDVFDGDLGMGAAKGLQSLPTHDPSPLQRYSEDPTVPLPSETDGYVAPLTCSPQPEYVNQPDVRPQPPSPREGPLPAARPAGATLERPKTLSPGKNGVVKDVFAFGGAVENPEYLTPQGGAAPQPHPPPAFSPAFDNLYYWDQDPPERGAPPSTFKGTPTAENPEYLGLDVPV
Sequence of Insulin-like growth factor 1 receptor (Homo sapiens) (P08069 31-736 limits assumed): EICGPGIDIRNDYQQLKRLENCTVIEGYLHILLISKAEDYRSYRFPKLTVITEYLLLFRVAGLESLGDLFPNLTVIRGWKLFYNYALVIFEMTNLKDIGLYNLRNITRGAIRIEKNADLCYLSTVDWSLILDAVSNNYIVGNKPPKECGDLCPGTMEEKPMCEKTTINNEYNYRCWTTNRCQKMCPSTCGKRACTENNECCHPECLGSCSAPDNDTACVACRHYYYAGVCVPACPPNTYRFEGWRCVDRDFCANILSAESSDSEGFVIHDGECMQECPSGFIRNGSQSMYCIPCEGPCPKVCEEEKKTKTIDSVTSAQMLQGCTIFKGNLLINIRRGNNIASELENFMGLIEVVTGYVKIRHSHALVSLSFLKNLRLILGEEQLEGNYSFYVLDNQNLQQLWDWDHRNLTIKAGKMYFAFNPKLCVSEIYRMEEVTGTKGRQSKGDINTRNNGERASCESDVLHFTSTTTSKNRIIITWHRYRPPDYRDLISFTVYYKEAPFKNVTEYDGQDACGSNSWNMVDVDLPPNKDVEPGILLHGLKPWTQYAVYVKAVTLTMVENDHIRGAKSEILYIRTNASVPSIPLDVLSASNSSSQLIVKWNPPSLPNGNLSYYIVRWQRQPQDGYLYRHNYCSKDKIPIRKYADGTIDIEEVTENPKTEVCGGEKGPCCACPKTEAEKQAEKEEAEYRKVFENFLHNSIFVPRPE
Sequence of Insulin-like growth factor 1 receptor (Homo sapiens) (P08069 741-1367 limits assumed): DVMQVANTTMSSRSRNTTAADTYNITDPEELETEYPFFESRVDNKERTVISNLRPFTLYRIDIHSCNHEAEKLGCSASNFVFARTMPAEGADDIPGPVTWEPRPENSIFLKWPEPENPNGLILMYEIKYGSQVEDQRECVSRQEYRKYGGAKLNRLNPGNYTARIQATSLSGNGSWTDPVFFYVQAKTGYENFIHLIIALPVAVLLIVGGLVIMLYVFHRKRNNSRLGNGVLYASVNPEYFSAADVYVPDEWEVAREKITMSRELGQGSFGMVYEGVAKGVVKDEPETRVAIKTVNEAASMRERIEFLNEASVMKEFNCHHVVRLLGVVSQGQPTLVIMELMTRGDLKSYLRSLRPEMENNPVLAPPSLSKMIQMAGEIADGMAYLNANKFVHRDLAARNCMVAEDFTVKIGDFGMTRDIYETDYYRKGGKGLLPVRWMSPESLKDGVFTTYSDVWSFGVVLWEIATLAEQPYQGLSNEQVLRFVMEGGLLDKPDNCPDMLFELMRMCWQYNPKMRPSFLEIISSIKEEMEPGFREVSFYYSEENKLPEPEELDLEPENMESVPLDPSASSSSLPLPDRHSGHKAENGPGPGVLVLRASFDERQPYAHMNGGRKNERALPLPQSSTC

Structure (SMILES): C/C1=C\[C@H](OC(=O)Nc2ccc(Cl)cc2Cl)C[C@](C)(O)/C=C/[C@H](C(C)C)CC/C(C)=C/CC1
pIC50 [1]: 4.81 | pIC50 [2]: 4.98

Structure (SMILES): C/C1=C\[C@H](OC(=O)Nc2cc(C(F)(F)F)cc(C(F)(F)F)c2)C[C@](C)(O)/C=C/[C@H](C(C)C)CC/C(C)=C/CC1
pIC50 [3]: 5.77 | inhibition [4]: 3% | pIC50 [5]: 5.96 | inhibition [5]: Dose-dependent effect | inhibition [6]: Dose-dependent effect | inhibition [7]: Dose-dependent effect | inhibition [8]: 84% | inhibition [9]: Dose-dependent effect | inhibition [10]: Dose-dependent effect | inhibition [11]: 31% | inhibition [12]: Active | inhibition [13]: 9% | inhibition [14]: 11% | inhibition [15]: 22% | inhibition [16]: Dose-dependent effect | pIC50 [17]: 5.85 | pIC50 [1]: 5.68 | inhibition [18]: 31% | inhibition in vivo at 10 mg/kg [19]: 66.7% | pIC50 [2]: 5.89 | inhibition [20]: Dose-dependent effect | inhibition [21]: 49% | Activity [22]: Active | cytotoxicity at 24 h, 15 µM [23]: 8.3% | pIC50 [24]: 5.14 | Activity [25]: Non-Toxic | pIC50 [26]: 4.95 | pIC50 [27]: 5.33 | Activity [28]: Active | inhibition [29]: 30% | Activity [30]: Non-Toxic | pIC50 [31]: 5.41 | Activity [32]: 716 mm3 | inhibition [33]: 10%

Structure (SMILES): C/C1=C\[C@H](OC(=O)Nc2cccc(Cl)c2)C[C@](C)(O)/C=C/[C@H](C(C)C)CC/C(C)=C/CC1
pIC50 [5]: 5.47 | pIC50 [1]: 4.97 | pIC50 [2]: 5.04

Structure (SMILES): C/C1=C\[C@H](OC(=O)Nc2c(Cl)cccc2Cl)C[C@](C)(O)/C=C/[C@H](C(C)C)CC/C(C)=C/CC1
pIC50 [1]: 4.91 | pIC50 [2]: 4.97

Structure (SMILES): C/C1=C\[C@H](OC(=O)Nc2cccc(C(F)(F)F)c2)C[C@](C)(O)/C=C/[C@H](C(C)C)CC/C(C)=C/CC1
pIC50 [5]: 5.74 | pIC50 [1]: 5.24 | pIC50 [2]: 5.31

Structure (SMILES): C/C1=C\[C@H](OC(=O)Nc2cc(Cl)cc(Cl)c2)C[C@](C)(O)/C=C/[C@H](C(C)C)CC/C(C)=C/CC1
pIC50 [5]: 5.54 | pIC50 [1]: 5.18 | pIC50 [2]: 5.28

Structure (SMILES): C/C1=C\[C@H](OC(=O)Nc2ccc(Cl)c(Cl)c2)C[C@](C)(O)/C=C/[C@H](C(C)C)CC/C(C)=C/CC1
pIC50 [1]: 4.97 | pIC50 [2]: 5.07

Structure (SMILES): C/C1=C\[C@H](OC(=O)NC2CCCCC2)C[C@](C)(O)/C=C/[C@H](C(C)C)CC/C(C)=C/CC1
pIC50 [1]: 4.40 | pIC50 [2]: 4.42

Structure (SMILES): C/C1=C\[C@H](O)C[C@](C)(O)/C=C/[C@H](C(C)C)CC/C(C)=C/CC1
pIC50 [5]: 4.65 | inhibition [34]: Dose-dependent effect

Other lines, results leading:

pIC50 [1]: 4.59 | pIC50 [2]: 4.58
Structure (SMILES): CCc1ccc(NC(=O)O[C@H]2/C=C(\C)CC/C=C(\C)CC[C@@H](C(C)C)/C=C/[C@@](C)(O)C2)cc1

pIC50 [1]: 4.94 | pIC50 [2]: 5.05
Structure (SMILES): C/C1=C\[C@H](OC(=O)Nc2ccc(C(F)(F)F)cc2)C[C@](C)(O)/C=C/[C@H](C(C)C)CC/C(C)=C/CC1

pIC50 [1]: 4.75 | pIC50 [2]: 4.79
Structure (SMILES): C/C1=C\[C@H](OC(=O)Nc2ccccc2F)C[C@](C)(O)/C=C/[C@H](C(C)C)CC/C(C)=C/CC1

pIC50 [1]: < 4.30 | pIC50 [2]: < 4.30
Structure (SMILES): C/C1=C\[C@H](OC(=O)Nc2cccc3ccccc23)C[C@](C)(O)/C=C/[C@H](C(C)C)CC/C(C)=C/CC1

pIC50 [1]: 4.84 | pIC50 [2]: 4.86
Structure (SMILES): C/C1=C\[C@H](OC(=O)Nc2ccccc2Cl)C[C@](C)(O)/C=C/[C@H](C(C)C)CC/C(C)=C/CC1

pIC50 [1]: 4.71 | pIC50 [2]: 4.79
Structure (SMILES): C/C1=C\[C@H](OC(=O)Nc2cccc(F)c2)C[C@](C)(O)/C=C/[C@H](C(C)C)CC/C(C)=C/CC1

pIC50 [1]: 4.64 | pIC50 [2]: 4.70
Structure (SMILES): C/C1=C\[C@H](OC(=O)Nc2ccccc2)C[C@](C)(O)/C=C/[C@H](C(C)C)CC/C(C)=C/CC1

pIC50 [1]: 4.89 | pIC50 [2]: 4.87
Structure (SMILES): C/C1=C\[C@H](OC(=O)Nc2ccc(Cl)cc2)C[C@](C)(O)/C=C/[C@H](C(C)C)CC/C(C)=C/CC1

pIC50 [1]: 4.55 | pIC50 [2]: 4.56
Structure (SMILES): C/C1=C\[C@H](OC(=O)Nc2cccc(C)c2)C[C@](C)(O)/C=C/[C@H](C(C)C)CC/C(C)=C/CC1

pIC50 [1]: < 4.30 | pIC50 [2]: < 4.30
Structure (SMILES): C/C1=C\[C@H](OC(=O)Nc2ccc(-c3ccccc3)cc2)C[C@](C)(O)/C=C/[C@H](C(C)C)CC/C(C)=C/CC1
